Data from US20170290871A1, “METHOD OF TREATING HYPERTENSION” (KING SAUD UNIVERSITY, priority 2016, published 2017).

Tests used:
Assay type in all cases: in vivo, Sprague-Dawley rats
[1] = tested on: hypertension induced rats; assay: Plasma lipid profile of hypertension induced rats; conditions: captopril 20 mg/kg daily for three weeks, mean ± SD of 6
Procedure: (§1) Male Sprague-Dawley rats were divided into nine groups of six rats each and treated daily for three consecutive weeks. High salt-sucrose solution was given to the rats to induce hypertension in them. […] At the end of the experimental period, arterial blood pressure and heart rate of all rats were recorded. The rats were sacrificed by decapitation and the free running blood was collected for analysis. The systolic blood pressure (SBP), the diastolic blood pressure (DBP) and the heart rate (HR) of the rats were measured by the tail cuff every day during the entire period of study in control, drug and extract treated animals. For the estimation of alanine transaminase (ALT), aspartate transaminase (AST), alkaline phosphatase (ALP), total cholesterol, triglycerides, low-density lipoprotein (LDL) and high density lipoprotein (HDL), blood samples were collected in clot activator gel tubes. The serum was separated by centrifuging the blood samples at 5000 rpm for 10 minutes. Serum biochemical parameters were then measured by using commercially available reagent kits.

[2] = tested on: hypertension induced rats; assay: Blood pressure and heart rate of salt-sucrose hypertension induced rats; conditions: captopril 20 mg/kg daily for three weeks, mean ± SD of 6
Procedure: (§2) Male Sprague-Dawley rats were divided into nine groups of six rats each and treated daily for three consecutive weeks. High salt-sucrose solution was given to the rats to induce hypertension in them. […] At the end of the experimental period, arterial blood pressure and heart rate of all rats were recorded. The rats were sacrificed by decapitation and the free running blood was collected for analysis. The systolic blood pressure (SBP), the diastolic blood pressure (DBP) and the heart rate (HR) of the rats were measured by the tail cuff every day during the entire period of study in control, drug and extract treated animals.

[3] = tested on: hypertension induced rats; assay: Serum marker enzymes (AST, ALT, ALP) of hypertension induced rats
Procedure: as §1

[4] = tested on: hypertension induced rats; assay: GSH and SOD in tissue homogenates (liver, heart, kidney) of hypertension induced rats
Procedure: as §2, with “animals. After collecting the blood samples from the rats, their abdominal cavity was opened; heart, liver and kidney were dissected out and homogenized in Tris-HCl buffer solution to make a 20% homogenate. Glutathione (GSH) and superoxide dismutase (SOD) were determined using the method described by Ellman & Misra for assessing the oxidative damage parameters in some organs.” for “animals.”

[5] = serum, captopril 20 mg/kg daily for three weeks, mean ± SD of 6
[6] = heart homogenate, captopril 20 mg/kg, mean ± SD of 6
[7] = kidney homogenate, captopril 20 mg/kg, mean ± SD of 6
[8] = liver homogenate, captopril 20 mg/kg, mean ± SD of 6

SMILES: C[C@H](CS)C(=O)N1CCC[C@H]1C(=O)O [Captopril, captopril]
- CHOLESTEROL [1]: 135.42 ± 13.41a* mg/dL
- HDL [1]: 41.46 ± 4.55a* mg/dL
- LDL [1]: 89.23 ± 9.8a* mg/dL
- TRIGLYCERIDES [1]: 106.41 ± 9.52a* mg/dL
- Diastolic BP [2]: 95.56 ± 10.5a* mm Hg
- Heart rate [2]: 328.86 ± 36.14a* beats/min
- Systolic BP [2]: 121.45 ± 10.9a* mm Hg
- levels of AST, ALT, ALP and lipid profile, in words [3]: brought back significantly to near normal
- ALP [3, 5]: 132.12 ± 17.41a* IU/L
- ALT [3, 5]: 85.44 ± 10.33a* IU/L
- AST [3, 5]: 45.03 ± 5.44a* IU/L
- Heart GSH [4, 6]: 38.78 ± 4.69a^ mM/L
- Heart SOD [4, 6]: 68.92 ± 9.08a^@ U/mg
- Kidney GSH [4, 7]: 31.04 ± 2.78a^@ mM/L
- Kidney SOD [4, 7]: 67.96 ± 6.08a^@ U/mg
- Liver GSH [4, 8]: 28.92 ± 4.12a^ mM/L
- Liver SOD [4, 8]: 42.67 ± 5.62a^ U/mg
- levels of enzymic antioxidants, in words ([4]; tissue homogenates): retained to near normal values significantly
